From patent publication USRE37781E1, “Substituted cyclic carbonyls and derivatives thereof useful as retroviral protease inhibitors” (DuPont Pharmaceuticals Company, priority 1991, dated 2002)
≈ marks a conversion by molar mass, not a printed value. Where two headings read alike, the source gives them in different places.

Assays:
[1] = target: single-chain tethered dimer of HIV protease (Human immunodeficiency virus 1, UniProt P04585); assay: biochemical; type: biochemical
Description: HIV Protease Inhibition Assay—HPLC Method
Active protease was prepared as described therein by extraction with 67% acetic acid, dilution 33-fold with water, dialysis against water and then against a “refolding buffer” consisting of 20 mM MES, 1 mM dithiothreitol and 10% glycerol. Protease was stored as a stock preparation at 10 uM in refolding buffer.
Substrate: Peptide of sequence: aminobenzoyl-Ala-Thr-His-Gln-Val-Tyr-Phe(NO2)-Val-Arg-Lys-Ala containing p-nitrophenylalanine, was prepared by solid phase synthesis as previously described Cheng et al., op.cit. Stock solutions of 2 mM substrate were prepared in DMSO.
Inhibitory compounds were dissolved in sufficient DMSO to make 3 mM stock solutions. All further dilutions were prepared in “assay buffer”: 1M NaCl, 50 mM MES, pH 5.5, 1 mM EDTA, 1 mM DTT, […] glycerol.
Enzyme reaction: In a 2 ml screw-cap centrifuge tube were added 50 ul protease (final concentration 0.25 nM) and 0.1 ml inhibitory compound (final concentration […]). After 15 min preincubation at room temperature, the reaction was started with the addition of 0.05 ml substrate (final concentration 5 uM). Incubation was carried out at 30 C. for 1 hr. The reaction was stopped with 1 ml 0.1M ammonium hydroxide.
HPLC measurement of product formation: The product (aminobenzoyl-Ala-Thr-His-Gln-Val-Tyr) was separated from substrate on a Pharmacia MonoQ anion exchange column. The injection volume was 0.2 ml. The mobile phases were: A (20 mM trisHCl, pH 9.0, 0.02% sodium Azide, 10% acetonitrile), B (20 mM tris HCl, pH 9.0, 0.02% sodium azide, 0.5M ammonium formate, 10% acetonitrile). The mobile phases were pumped at 1 ml/min, with a gradient from 0 to 30% B in 5 min, 100% B for 4 min to wash the column, and a re-equilibration for 4 min. The retention time of the product was 3.6 min. Detection with a Shimadzu model RF535 fluorescence monitor was at 330 nm (excitation) and 430 (emission).

[2] = system: HIV-1 (RF) in MT-2 cells; assay: microbe, parasite or virus in culture; type: cell-based; settings: HIV-1 infected MT-2 cells, class symbols
Outline: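 Read-out: gag and pol viral RNA captured by 5′-biotinylated oligonucleotides on streptavidin-coated wells, detected with alkaline phosphatase-linked reporter oligonucleotides, calibrated against BH10 in vitro transcripts. Virus stocks (RF, MN, IIIB) come from H9 cultures; MT-2 host cells kept in RPMI 1640, 5% FCS.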

[3] = Human immunodeficiency virus 1, MT2, HIV RNA assay, read-out: IC90
[4] = HIV protease inhibition, class symbols, read-out: Ki

Structure (SMILES): C=CCN1C(=O)N(Cc2ccncc2)C(Cc2ccccc2)C(O)C(O)C1Cc1ccccc1 (stereo not drawn) [Example 5E]
- Ki [1]: 10 to 1000 nM
- IC90 [2, 3]: < 10 µg/mL

Structure (SMILES): O=C1N(Cc2cn(Cc3ccccc3)cn2)C(Cc2ccccc2)C(O)C(O)C(Cc2ccccc2)N1Cc1cn(Cc2ccccc2)cn1 (stereo not drawn) [Example 6ZP]
- Ki [1, 4]: > 1000 nM
- IC90 ([2]; HIV RNA assay): ++ (++=10 to 100 μg/mL)

Structure (SMILES): O=C1N(CC2CCCC2)C(Cc2ccccc2)C(O)C(O)C(Cc2ccccc2)N1CC1CC1 (stereo not drawn) [Example 4F]
- Ki [1]: < 10 nM
- IC90 [2, 3]: < 10 µg/mL

Structure (SMILES): CN(C)CCN1C(=O)N(CCN(C)C)C(Cc2ccccc2)C(O)C(O)C1Cc1ccccc1 (stereo not drawn) [Example 6N]
- Ki [1, 4]: > 1000 nM
- IC90 ([2]; HIV RNA assay): + (+=>100 μg/mL)

Structure (SMILES): O=C1NC(Cc2ccccc2)C(O)C(O)C(Cc2ccccc2)N1Cc1cccc([N+](=O)[O-])c1 (stereo not drawn) [Example 6ZL]
- Ki [1]: < 10 nM
- IC90 [2, 3]: < 10 µg/mL

Structure (SMILES): COc1ccccc1CN1C(=O)N(Cc2ccccc2OC)C(Cc2ccccc2)C(O)C(O)C1Cc1ccccc1 (stereo not drawn) [Example 6ZB]
- Ki [1]: > 1000 nM
- IC90 [2, 3]: 10 to 100 µg/mL (≈ 17.6 to 176 µM)

Structure (SMILES): O=C1N(Cc2ccncc2)C(Cc2ccccc2)C(O)C(O)C(Cc2ccccc2)N1CC1CC1 (stereo not drawn) [Example 4C]
- Ki [1]: < 10 nM
- IC90 [2, 3]: < 10 µg/mL

Structure (SMILES): Cc1ccc(CN2C(=O)N(Cc3ccc(C)cc3)C(Cc3ccccc3)C(O)C(O)C2Cc2ccccc2)cc1 (stereo not drawn) [Example 6T]
- Ki [1]: < 10 nM
- IC90 [2, 3]: < 10 µg/mL

Structure (SMILES): O=C1N(Cc2ccc(O)cc2)C(Cc2ccccc2)C(O)C(O)C(Cc2ccccc2)N1CC1CC1 (stereo not drawn) [Example 6E]
- Ki [1, 4]: < 10 nM
- IC90 ([2]; HIV RNA assay): +++ (+++=<10 μg/mL)

Structure (SMILES): CCCCN1C(=O)N(CC2CC2)C(Cc2ccccc2)C(O)C(O)C1Cc1ccccc1 (stereo not drawn) [Example 3X]
- Ki [1]: < 10 nM
- IC90 [2, 3]: < 10 µg/mL

Structure (SMILES): O=C1N(Cc2ccccc2)CC(O)C(Cc2ccccc2)N1Cc1ccccc1 (stereo not drawn) [30U]
- Ki ([1]; Table 2t, read-out: Ki): > 1000 nM

Structure (SMILES): O=C1N(CC2CC2)CCC(O)C(Cc2ccccc2)N1CC1CC1 (stereo not drawn) [30O]
- Ki ([1]; Table 2t, read-out: Ki): > 1000 nM

Structure (SMILES): O=C1N(Cc2cccc(O)c2)C(Cc2ccccc2)C(O)C(O)C(Cc2ccccc2)N1CC1CC1 (stereo not drawn) [Example 6D]
- Ki [1, 4]: < 10 nM
- IC90 ([2]; HIV RNA assay): +++ (+++=<10 μg/mL)

Structure (SMILES): O=C1N(Cc2ccccn2)C(Cc2ccccc2)C(O)C(O)C(Cc2ccccc2)N1CC1CC1 (stereo not drawn) [Example 4N]
- Ki [1, 4]: < 10 nM
- IC90 ([2]; HIV RNA assay): +++ (+++=<10 μg/mL)

Structure (SMILES): Nc1cccc(CN2C(=O)N(Cc3cccc(N)c3)C(Cc3ccccc3)C(O)C(O)C2Cc2ccccc2)c1 (stereo not drawn) [Example 6ZI]
- Ki [1]: < 10 nM
- IC90 [2, 3]: < 10 µg/mL

Structure (SMILES): O=C1N(Cc2ccccc2)C(Cc2ccccc2)C(O)C(O)C(Cc2ccccc2)N1CC1CCCC1 (stereo not drawn) [Example 4E]
- Ki [1, 4]: < 10 nM
- IC90 ([2]; HIV RNA assay): +++ (+++=<10 μg/mL)

Structure (SMILES): O=S1(=O)N(Cc2ccc3ccccc3c2)CC(O)C(Cc2ccccc2)N1Cc1ccc2ccccc2c1 (stereo not drawn) [30I]
- Ki ([1]; Table 2t, read-out: Ki): 10 to 1000 nM

Structure (SMILES): O=C1N(Cc2ccc(CO)cc2)CCC(O)C(Cc2ccccc2)N1Cc1ccc(CO)cc1 (stereo not drawn) [30N]
- Ki ([1]; Table 2t, read-out: Ki): 10 to 1000 nM

Structure (SMILES): O=C1N(Cc2ccccc2)CCC(O)C(Cc2ccccc2)N1Cc1ccccc1 (stereo not drawn) [30L]
- Ki ([1]; Table 2t, read-out: Ki): > 1000 nM

Structure (SMILES): COc1cccc(CN2C(=O)N(Cc3cccc(OC)c3)C(Cc3ccccc3)C(O)C(O)C2Cc2ccccc2)c1 (stereo not drawn) [Example 6Q]
- Ki [1]: < 10 nM
- IC90 [2, 3]: < 10 µg/mL

Structure (SMILES): CN(C)CCN1C(=O)N(CCN(C)C)C(Cc2ccccc2)C(O)C(O)C1Cc1ccccc1 (stereo not drawn) [Example 6R]
- Ki [1]: > 1000 nM
- IC90 [2, 3]: > 100 µg/mL

Structure (SMILES): O=C1N(Cc2ccccc2Cl)C(Cc2ccccc2)C(O)C(O)C(Cc2ccccc2)N1Cc1ccccc1Cl (stereo not drawn) [Example 6ZD]
- Ki [1]: 10 to 1000 nM
- IC90 [2, 3]: < 10 µg/mL

Structure (SMILES): CCCN1C(=O)N(Cc2ccc3ccccc3c2)C(Cc2ccccc2)C(O)C(O)C1Cc1ccccc1 (stereo not drawn) [Example 4T]
- Ki [1, 4]: < 10 nM
- IC90 ([2]; HIV RNA assay): +++ (+++=<10 μg/mL)

Structure (SMILES): O=C1N(CC=Cc2ccccc2)C(Cc2ccccc2)C(O)C(O)C(Cc2ccccc2)N1CC1CC1 (stereo not drawn) [Example 4I]
- Ki [1]: < 10 nM
- IC90 [2, 3]: < 10 µg/mL

Structure (SMILES): O=C1N(Cc2ccc3ccccc3c2)CC(O)C(Cc2ccccc2)N1Cc1ccc2ccccc2c1 (stereo not drawn) [30F]
- Ki ([1]; Table 2t, read-out: Ki): > 1000 nM

Structure (SMILES): O=C1N(CC2CCCC2)C(Cc2ccccc2)C(O)C(O)C(Cc2ccccc2)N1CC1CCCC1 (stereo not drawn) [Example 6H]
- Ki [1]: < 10 nM
- IC90 [2, 3]: < 10 µg/mL

Structure (SMILES): Cc1cccc(CN2C(=O)N(Cc3cccc(C)c3)C(Cc3ccccc3)C(O)C(O)C2Cc2ccccc2)c1 (stereo not drawn) [Example 6ZA]
- Ki [1]: < 10 nM
- IC90 [2, 3]: < 10 µg/mL
